Assay results: ChEMBL document CHEMBL3885881, “DrugMatrix”

Species on record: Rattus norvegicus
Assay: DrugMatrix - Regimen: Daily Repeat
Format: toxicity, organism-based, Sprague-Dawley
Set-up: regimen Daily Repeat, gender Male, age 6-8 weeks
Settings: in vivo, po, route oral GAVAGE, […]; for ABSOLUTE BASOPHIL / ABSOLUTE EOSINOPHIL / ABSOLUTE LYMPHOCYTE / ABSOLUTE MONOCYTE / ABSOLUTE SEGMENTED NEUTROPHIL / BASOPHIL / EOSINOPHIL / ERYTHROCYTE COUNT / HEMATOCRIT / HEMOGLOBIN / LEUKOCYTE COUNT / LYMPHOCYTE / MEAN CORPUSCULAR HEMOGLOBIN / MEAN CORPUSCULAR HEMOGLOBIN CONCENTRATION / MEAN CORPUSCULAR VOLUME / MONOCYTE / NEUTROPHIL / NUCLEATED RED BLOOD CELLS / PLATELET COUNT: tissue Blood; for ALANINE AMINOTRANSFERASE / ALBUMIN / ALKALINE PHOSPHATASE / ASPARTATE AMINOTRANSFERASE / BLOOD UREA NITROGEN / CARBON DIOXIDE / CHLORIDE / CHOLESTEROL / CREATINE PHOSPHOKINASE / CREATININE / GLUCOSE / LACTATE DEHYDROGENASE / LIPASE / PHOSPHORUS / POTASSIUM / SODIUM / TOTAL BILIRUBIN / TOTAL PROTEIN / URIC ACID: tissue Plasma
[1] = 5 mg/kg, 120 h, dose level Low, time 5 day
[2] = 50 mg/kg, 72 h, dose level High, time 3 day
[3] = 50 mg/kg, 120 h, dose level High, time 5 day

## O=C(Nc1ccc(Cl)c(Cl)c1)c1cc(Cl)cc(Cl)c1O [3,3',4',5-TETRACHLOROSALICYLANILIDE]
[1]
  ABSOLUTE BASOPHIL: 0 CELLS/uL
  ABSOLUTE EOSINOPHIL: 0 CELLS/uL
  ABSOLUTE LYMPHOCYTE: 11308.33 CELLS/uL
  ABSOLUTE MONOCYTE: 94.67 CELLS/uL
  ABSOLUTE SEGMENTED NEUTROPHIL: 1830.33 CELLS/uL
  BASOPHIL: 0%
  EOSINOPHIL: 0%
  ERYTHROCYTE COUNT: 5.77 x10E6/uL
  HEMATOCRIT: 35.8%
  HEMOGLOBIN: 13.8 G/DL
  LEUKOCYTE COUNT: 13.23 x10E3/uL
  LYMPHOCYTE: 85.33%
  MEAN CORPUSCULAR HEMOGLOBIN: 23.93 pg
  MEAN CORPUSCULAR HEMOGLOBIN CONCENTRATION: 38.53 G/DL
  MEAN CORPUSCULAR VOLUME: 62.1 fL
  MONOCYTE: 0.67%
  NEUTROPHIL: 14%
  NUCLEATED RED BLOOD CELLS: 0.33 /100WBC
  PLATELET COUNT: 1151 x10E3/uL
  ALANINE AMINOTRANSFERASE: 59 u/L
  ALBUMIN: 4.07 G/DL
  ALKALINE PHOSPHATASE: 368.33 u/L
  ASPARTATE AMINOTRANSFERASE: 97.67 u/L
  BLOOD UREA NITROGEN: 14.33 mg/dL
  CARBON DIOXIDE: 28.67 mmol/L
  CHLORIDE: 101.33 MEQ/L
  CHOLESTEROL: 63.33 mg/dL
  CREATINE PHOSPHOKINASE: 534.67 u/L
  CREATININE: 0.21 mg/dL
  GLUCOSE: 164 mg/dL
  LACTATE DEHYDROGENASE: 242 u/L
  LIPASE: 11.33 u/L
  PHOSPHORUS: 10.3 mg/dL
  POTASSIUM: 5.94 MEQ/L
  SODIUM: 143.17 MEQ/L
  TOTAL BILIRUBIN: 0.13 mg/dL
  TOTAL PROTEIN: 5.77 G/DL
  URIC ACID: 1.63 mg/dL
[2]
  ABSOLUTE BASOPHIL: 0 CELLS/uL
  ABSOLUTE EOSINOPHIL: 28.67 CELLS/uL
  ABSOLUTE LYMPHOCYTE: 9453.33 CELLS/uL
  ABSOLUTE MONOCYTE: 0 CELLS/uL
  ABSOLUTE SEGMENTED NEUTROPHIL: 884.67 CELLS/uL
  BASOPHIL: 0%
  EOSINOPHIL: 0.33%
  ERYTHROCYTE COUNT: 5.84 x10E6/uL
  HEMATOCRIT: 36.23%
  HEMOGLOBIN: 13.87 G/DL
  LEUKOCYTE COUNT: 10.37 x10E3/uL
  LYMPHOCYTE: 91%
  MEAN CORPUSCULAR HEMOGLOBIN: 23.83 pg
  MEAN CORPUSCULAR HEMOGLOBIN CONCENTRATION: 38.33 G/DL
  MEAN CORPUSCULAR VOLUME: 62.23 fL
  MONOCYTE: 0%
  NEUTROPHIL: 8.67%
  NUCLEATED RED BLOOD CELLS: 0 /100WBC
  PLATELET COUNT: 1272.33 x10E3/uL
  ALANINE AMINOTRANSFERASE: 61.67 u/L
  ALBUMIN: 4.1 G/DL
  ALKALINE PHOSPHATASE: 432.67 u/L
  ASPARTATE AMINOTRANSFERASE: 89.67 u/L
  BLOOD UREA NITROGEN: 13.33 mg/dL
  CARBON DIOXIDE: 31 mmol/L
  CHLORIDE: 101.67 MEQ/L
  CHOLESTEROL: 79.67 mg/dL
  CREATINE PHOSPHOKINASE: 183.67 u/L
  CREATININE: 0.21 mg/dL
  GLUCOSE: 125.67 mg/dL
  LACTATE DEHYDROGENASE: 128.33 u/L
  LIPASE: 11.33 u/L
  PHOSPHORUS: 10.67 mg/dL
  POTASSIUM: 6.23 MEQ/L
  SODIUM: 144.27 MEQ/L
  TOTAL BILIRUBIN: 0.2 mg/dL
  TOTAL PROTEIN: 5.8 G/DL
  URIC ACID: 1.03 mg/dL
[3]
  ABSOLUTE BASOPHIL: 0 CELLS/uL
  ABSOLUTE EOSINOPHIL: 19.33 CELLS/uL
  ABSOLUTE LYMPHOCYTE: 5934.67 CELLS/uL
  ABSOLUTE MONOCYTE: 58 CELLS/uL
  ABSOLUTE SEGMENTED NEUTROPHIL: 688 CELLS/uL
  BASOPHIL: 0%
  EOSINOPHIL: 0.33%
  ERYTHROCYTE COUNT: 6.18 x10E6/uL
  HEMATOCRIT: 36.87%
  HEMOGLOBIN: 14 G/DL
  LEUKOCYTE COUNT: 6.7 x10E3/uL
  LYMPHOCYTE: 88.33%
  MEAN CORPUSCULAR HEMOGLOBIN: 22.73 pg
  MEAN CORPUSCULAR HEMOGLOBIN CONCENTRATION: 38.03 G/DL
  MEAN CORPUSCULAR VOLUME: 59.67 fL
  MONOCYTE: 0.67%
  NEUTROPHIL: 10.67%
  NUCLEATED RED BLOOD CELLS: 0 /100WBC
  PLATELET COUNT: 1091 x10E3/uL
  ALANINE AMINOTRANSFERASE: 49.33 u/L
  ALBUMIN: 4.27 G/DL
  ALKALINE PHOSPHATASE: 412 u/L
  ASPARTATE AMINOTRANSFERASE: 76 u/L
  BLOOD UREA NITROGEN: 15.67 mg/dL
  CARBON DIOXIDE: 32 mmol/L
  CHLORIDE: 101 MEQ/L
  CHOLESTEROL: 77.33 mg/dL
  CREATINE PHOSPHOKINASE: 289 u/L
  CREATININE: 0.25 mg/dL
  GLUCOSE: 133.33 mg/dL
  LACTATE DEHYDROGENASE: 94.67 u/L
  LIPASE: 11.67 u/L
  PHOSPHORUS: 9.23 mg/dL
  POTASSIUM: 5.61 MEQ/L
  SODIUM: 145.93 MEQ/L
  TOTAL BILIRUBIN: 0.13 mg/dL
  TOTAL PROTEIN: 6.07 G/DL
  URIC ACID: 1.03 mg/dL
